Experimental findings from patent US12275687B2 (priority 2017, dated 2025) are described below.

As a reminder, the Kd is the equilibrium constant for the complex coming apart. Low readings indicate tighter binding, high ones weaker binding. Usually Ki stands for a measure of affinity in units of concentration, obtained from inhibition or displacement. Higher therefore signals lower affinity.

Experiment [1] addresses BLT1-T4L. Nature of the experiment: Saturation binding of ^3H-LTB4, BLT1-T4L expressed in P. pastoris (membrane fraction). More on the design: species or system guinea pig. The following applies: saturation binding of ^3H-LTB4, ICL3-10 construct. From the text: (§1) For the ligand binding assay of BLT1-T4Ls, the T4L cDNA was integrated into the cDNA, encoding the newly generated thermostable BLT1 mutant with the additional mutation V212A, by the consensus method (residues 1-14 deleted and H83G/K88G/V212A/S309A mutations), with the α-factor PrePro signal sequence and the FLAG tag at the N-terminal, and the PreScission site and the His6 tag at the C-terminal of BLT1 (Hori T. et al., 2010, supra) in the pPIC3.5K vector, using the In-Fusion enzyme (FIG. 7A). The expression vectors were introduced into the yeast Pichia pastoris using an EasyComp kit (Thermo Fisher Scientific). BLT1-T4Ls were expressed in 10 ml cultures, and the membrane fraction was prepared as described previously (Hori T. et al., 2010, supra; Hon T. et al., 2015, supra).
(§2) For the evaluation of the ligand-binding activity of the BLT1 mutants and BLT1-T4Ls, a ^3H-LTB4 binding assay was performed using the BLT1-expressing membrane fractions of COS-7, HEK293, or P. pastoris cells, as described previously (Hori T. et al., 2010, supra; Hori T. et al., 2015, supra). For the evaluation of the thermostability, the membrane fraction was heat-treated before the ^3H-LTB4 binding assay.

Experiment [2] deals with BLT1-T4L. Description: Competition assay of ligands against ^3H-LTB4, BLT1-T4L expressed in P. pastoris. Format: binding, guinea pig.
Excerpt: as §1, §2

In experiment [3] the target is T1, BLT1 (Cavia porcellus, UniProt H0VYV8). Description: Saturation binding assay of ^3H-LTB4 and BLT1 with various concentrations of benzamidine. Also noted: expressed in transfected cells; host or cells: HEK293 (membrane fraction); species or system guinea pig. The following applies: equilibrium dissociation constant of ^3H-LTB4, global fitting with benzamidine. Here is the method:
Each point (±s.e.m.) indicates the mean value of three independent experiments, each with triplicate reactions. […] Each point (±s.e.m.) indicates the mean value of three independent experiments, each with triplicate reactions. […] Each point (±s.e.m.) indicates the mean value of triplicate reactions. For the evaluation of the ligand-binding activity of the BLT1 mutants and BLT1-[…], a ^3H-LTB4 binding assay was performed using the BLT1-expressing membrane fractions of COS-7, HEK293, or P. pastoris cells, as described previously (Hori T. et al., 2010, supra; Hori T. et al., 2015, supra). For the evaluation of the thermostability, the membrane fraction was heat-treated before the ^3H-LTB4 binding assay.

For experiment [4], the target named is T1, BLT1. Nature of the experiment: TGFα shedding assay with benzamidine (G-protein activation by LTB4). Format: cell-based. More on the design: expressed in transfected cells. The following applies: for logτA: agonist signaling efficacy; for KA / logKA: equilibrium dissociation constant of LTB4; for logKA: log value as printed; for Em: maximum possible signal response. Here is the method: Each point (±s.e.m.) indicates the mean value of three independent experiments, each with triplicate reactions. […] Each point (±s.e.m.) indicates the mean value of three independent experiments, each with triplicate reactions. […] Each point (±s.e.m.) indicates the mean value of triplicate reactions. […] To determine the parameters, three steps of fitting procedures were performed.

Structures are written as SMILES.

T1 sequence (H0VYV8 1-348): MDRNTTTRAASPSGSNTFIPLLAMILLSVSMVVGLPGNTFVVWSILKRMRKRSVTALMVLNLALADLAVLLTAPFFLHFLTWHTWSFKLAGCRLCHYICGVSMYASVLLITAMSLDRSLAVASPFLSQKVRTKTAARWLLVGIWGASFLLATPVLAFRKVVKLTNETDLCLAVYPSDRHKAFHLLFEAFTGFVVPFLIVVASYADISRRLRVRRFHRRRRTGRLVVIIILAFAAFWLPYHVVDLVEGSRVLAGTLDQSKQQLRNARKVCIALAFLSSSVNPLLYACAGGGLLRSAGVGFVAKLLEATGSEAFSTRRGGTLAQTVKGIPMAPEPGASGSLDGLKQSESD

As to `CCCCC/C=C\C[C@@H](O)/C=C/C=C/C=C\[C@@H](O)CCCC(=O)O` [LTB4, leukotriene B4], the Kd on BLT1-T4L [1] was 1.2 ± 0.1 nM; at BLT1 [3], 0.6 nM. In addition, the affinity at BLT1-T4L [2], expressed as Ki, was 0.67 nM. Further, the logIC50 in the experiment with BLT1-T4L [2] (log value (negative)) was −9.0. Moreover, the logτA came out at 0.076 at BLT1 [4] (G16, Em = 20) and 0.82 on BLT1 [4] (Gq/i1, in n = 1, Em = 25). Moreover, the KA result on BLT1 [4] (G16) is “(KA = 9.2 nM)”; on BLT1 [4] (Gq/i1), “(KA = 24 nM)”. The logKA at BLT1 [4] (G16) is −8.0; at BLT1 [4] (Gq/i1) it was −7.6. The values for the Em on BLT1 [4] (G16) and on BLT1 [4] (Gq/i1) were 27.6 and 26.7, respectively.
